Source: US9636347B2, “Sustained release formulations for the treatment of intraocular pressure or glaucoma” (Icon Bioscience, Inc., priority 2013, dated 2017)

Experiments:
[1] = Solubility of latanoprost; assay type: physicochemical; details: 1%, 2% or 4% (w/w %) formulations, clear solution
From the text: Latanoprost and other prostaglandin analogs are available commercially, for example, from Cayman Chemical (Ann Arbor, Mich.).
Liquid formulations of latanoprost and benzyl benzoate were made by weighing each component and mixing them together. Latanoprost is soluble in benzyl benzoate, yielding a clear solution. The formulations were either 1%, 2%, or 4% (w/w %) latanoprost.

[2] = cited from earlier work

solubility in benzyl benzoate [1]: soluble
Compound: CC(C)OC(=O)CCC/C=C\C[C@@H]1[C@@H](CC[C@@H](O)CCc2ccccc2)[C@H](O)C[C@@H]1O [Latanoprost, isopropyl-(Z)7[(1R,2R,3R,5S)3,5-dihydroxy-2-[(3R)-3-hydroxy-5-phenylpentyl]cyclopentyl]-5-heptenoate]
solubility in acetone, ethanol, ethyl acetate, isopropanol, methanol, and octanol ([2]; acetone, ethanol, ethyl acetate, isopropanol, methanol, octanol): freely soluble | solubility in acetonitrile ([2]; acetonitrile): very soluble | solubility in water ([2]; water): practically insoluble
